From US20030113369A1, “Liposomes with enhanced circulation time and method of treatment” (priority 1991, published 2003)
Entries after “also recorded” stand apart in the source; their conditions may differ. Structures can show the parent of a compound that is named as a salt.

Assays:
[1] = test system: C-26 colon carcinoma; assay: Tumor treatment, subcutaneous colon carcinoma; format: in vivo, mice
Method: Vesicle-forming lipids containing PEG-PE, PG, PHEPC, and cholesterol and α-TC in a mole ratio of 0.15:0.3:1.85:1:0.2 were dissolved in chloroform to a final lipid concentration of 25 μmol phospholipid/ml. The lipid mixture was dried into a thin film under reduced pressure. […] The MLV suspension was frozen in a dry ice acetone bath and thawed three times and sized to 80-100 nm by extrusion as detailed above. An ammonium ion gradient was created substantially as described in Example 10. The liposomes were loaded with epirubicin, and free (unbound drug) removed also as described in Example 10 for doxorubicin. […] Epirubicin HCl and doxorubicin HCL, the commercial products, were obtained from the hospital pharmacy.
About 10^6 cells C-26 colon carcinoma cells were injected subcutaneously into three groups of 35 mice. The groups were subdivided into five 7-animal subgroups.
Each group was followed for 28 days. Tumor size was measured for each animal on days 5, 7, 12, 14, 17, 21, 24 and 28. The growth of the tumor in each subgroup (expressed as the mean tumor size of the individual animals) at each time point is plotted in FIG. 15A.
The same number of animals were inoculated with the same number of tumor cells as described above.

[2] = test system: syngeneic MC2 mouse mammary carcinoma; assay: Tumor treatment, breast carcinoma; format: in vivo, C3H/He mice; conditions: 6 mg/kg IV on days 1, 8 and 15; FIG. 21
Method: Ten-week-old female C3H/He mice were randomized into three groups of 20 animals and each received bilateral subcutaneous implants of 10^5˜10^6 syngeneic MC2 mouse mammary carcinoma cells on day 0. Intravenous injections of 6 mg/kg of free epirubicin, PEG liposomes with entrapped epirubicin (6 mg/kg) or a saline control were given on days 1, 8 and 15. Weights of the animals were taken on days 0, 7, 14, 22 and 24.
Results of the study are plotted in FIG. 21, where mean tumor size for the three treatment groups is as indicated, expressed as mean tumor size (in mm^3×10^−1) for all three treatment groups. […] At day 24 the statistical confidence between the liposome and free drug groups is extremely high (+=9.9, p<0.0000001 using the Student's +tests).

[3] = Maximum tolerated dose; conditions: mouse, in vivo
Method: Solutions of free doxorubicin HCl, epirubicin HCl were obtained as above. PEG-liposome formulations containing either doxorubicin or epirubicin, at a drug concentration of 70-90 μg compound/μmole liposome lipid, were prepared as described in Example 10. Conventional liposomes (no PEG-derivatized lipid) were loaded with doxorubicin to a drug concentration of […] lipid using standard techniques.
Each of the five formulations was administered to 35 mice, at a dose between 10 and 40 mg drug/kg body weight, in 5 mg/kg increments, with five receiving each dosage.

[4] = Multidose toxicity of epirubicin: weight change and heart histology; format: in vivo, mice
[5] = test system: C-26 colon carcinoma; conditions: cited from earlier work
[6] = test system: syngeneic mammary carcinoma cells (MC2); conditions: cited from earlier work
[7] = Survival at 120 days following a single injection

COc1cccc2c1C(=O)c1c(O)c3c(c(O)c1C2=O)C[C@@](O)(C(=O)CO)C[C@@H]3O[C@H]1C[C@H](N)[C@@H](O)[C@H](C)O1 [EPI, Epirubicin HCl]
survival of the animals at 120 days following tumor implantation ([1]; 6 mg/kg on days 1, 8 and 15, seven animals per group): none
tumor growth compared with the saline control ([1]; IV on days 1, 8 and 15, FIG. 15A): neither free doxorubicin nor free epirubicin at 6 mg/kg significantly suppressed tumor growth
tumor response, delayed treatment ([1]; days 3, 10, 17 or days 10, 17, 24, 6 mg/kg (liposomes also 9 mg/kg), FIGS. 15B, 15C, 18, listed as free epirubicin, HCl): only a modest retardation in the rate of tumor growth; also recorded: no tumor regression was seen
tumor growth [2]: the tumor grows quickly
MTD at 14 days [3]: 10 mg/kg
weight change ([4]; three weekly injections from day 3, 26-day period, C-26 tumor-bearing mice, FIG. 19): lost weight rapidly starting about day 10
histological examination of heart muscle tissue ([4]; three weekly injections, 6 mg/kg free, 6 or 9 mg/kg liposomal): significant cardiomyopathy was observed
in vitro activity against C-26 colon carcinoma [5]: show in vitro activity against this tumor
in vitro sensitivity of MC2 cells [6]: sensitive in vitro
Surviving mice at 120 days ([7]; 3 mg/kg): 5/5
Surviving mice at 120 days ([7]; 6 mg/kg): 5/5
Surviving mice at 120 days ([7]; 9 mg/kg): 2/5
Surviving mice at 120 days ([7]; 12 mg/kg): 0/5
Surviving mice at 120 days ([7]; 15 mg/kg): 0/5
dose at which 2/5 animals died ([7]; 120 days): 9 mg/kg
